Patent US20090264342A1, “COMPOSITIONS AND METHODS FOR ANTIBIOTIC POTENTIATION AND DRUG DISCOVERY” (priority 2006, published 2009)

Experiments:
E. Coli RecA protein = biological target: T1, E. Coli RecA protein (Escherichia coli, UniProt P0A7G6); assay: RecA ATPase activity, in vitro luciferase assay; assay type: biochemical; settings: luciferase assay screen, FIG. 14
T1 construct: purchased New England Biolabs
Experimental: The assay measures the amount of ATPase (adenosine triphosphate (ATP)-adenosine diphosphate (ADP)) activity catalyzed by E. Coli RecA protein. In the assay, recA is incubated in reaction buffer with DNA, ATP and compounds of interest for a measured amount of time. The quantity of ATP remaining after the RecA reaction is quantitated using a subsequent luciferase assay. […] Details of the assay are provided below.
Materials. Kingase glo plus, adenosine triphosphate (ATP), Adenosine 5′-O-(3-thiotriphosphate), and 384 well plates, white were obtained from Fisher; and M13 mp18 Single-stranded DNA, RecA Protein and T4 Polynucleotide Kinase Reaction Buffer=PNK were obtained from New England Biolabs. PNK contained 70 mM Tris-CL pH 7.5, 10 mM MgCl2 and 5 mM DTT.
Assay Procedure. Final reaction mixture contains: 0.5 μL of M13 single stranded DNA (250 μg/mL); 1.0 μL of 10×PHK buffer; 0.25 μL of RecA (2 mg/mL); 0.25 μL of 1 mM ATP; 0.25 μL of test compound in DMSO; and […] of H2O.
Test compounds are incubated at room temperature in the presence of RecA protein and DNA prior to addition of ATP. This can be achieved by the preparation of two mixes, as indicated below. Desirably, both a no-DNA and a DNA/DMSO-only (i.e., no test compound) control were included.
The following steps are then performed: (1) Add 7.75 μL of mix 1 to the well of a 384 well plate; (2) Add 0.5 μL of the compound of interest; (3) Incubate at room temperature for 5 minutes; (4) Add 2.5 μL of the ATP mix. Incubate at room temperature for 30 minutes; (5) Add 12.5 μL of Promega Kinase glo plus; (6) Incubate at room temperature for 10 minutes or more; and (7) Measure luminescence of the reaction.
Tested compounds were obtained from Boston University (1205 compounds from CMLD diversity library, available from Dr. Scott Schauss), IndoFine (66 compounds based on flavone structure), ChemdiV (48 compounds known to be ATPase inhibitors and 720 compounds structurally related to CB101 (described, for example, in U.S. Ser. No. 60/662,038), and Asinex. Five (5) tested compounds were bisfiavones and 28 were predicted, based on structural modeling (see, for example, Example 31) to dock with Rec A. Many of the compounds are lipophilic, natural-product-like compounds. Others are flavones, bisflavones, flavonoids, coumarins, and/or heterocyclic compounds.
Percent inhibition is calculated according to the following equation: […]

wild type E. coli = assay: Growth of wild type E. coli in the presence of quinolone (OD600); assay type: cell-based; settings: 0.1 μg/mL of Cipro (sublethal concentration)
From the text: Each deletion strain was constructed by replacing the chromosomal copy of the relevant gene in a wild type E. coli strain (K-12) with a selectable antibiotic resistance gene, essentially as described, to create a precise gene deletion (Datsenko, K. A. and Wanner, B. L., “One-step inactivation of chromosomal genes in Escherichia coli K-12 using PCR products”, Proc Natl Acad Sci USA, 97, 6640-6645, […]); Baba, T., Ara, T., Okumura, Y., iki Hasegawa, M., Takai, Y., Baba, M., Oshima, T., Tomita, M., Wanner, B. and Mori, H. (2003) Systematic construction of single gene deletion mutants in Escherichia coli K-12 (in preparation) and see also the web site at ecoli.aist-nara.ac.jp/gb5/Resources/deletion/deletion.html).
For each mutant, the ratio of growth of the mutant in the presence of a sublethal concentration of quinolone to growth of the mutant in the absence of quinolone was calculated after 12 hours of growth at 37° C., based on OD600 measurements. […]

S. aureus cells = assay: Mutation/resistance assay, resistance to ciprofloxacin; assay type: cell-based; settings: 4×MIC ciprofloxacin with (+) or without (−) 25 μg/mL hinokiflavone
Experimental: This assay measures the rate at which mutant cells arise in the presence of an antibiotic agent. Cells are grown in the presence of antibiotic agent at a concentration above (generally well above, e.g., 4× or 8×) its MIC, and further in the presence or absence of a test agent (that may inhibit or enhance mutation).
Every 24 hours, an aliquot is removed from the culture and is diluted so that the antibiotic agent is no longer present at a concentration above its MIC (e.g., so that the antibiotic agent is present at 0.5×MIC or less). These aliquoted samples are then assayed to determine whether they can grow in the presence of the antibiotic agent. Specifically, when growth is observed in the presence of antibiotic agent at a concentration that is 4×MIC, then resistance is said to have developed. Test compounds can therefore be assayed to assess whether or not they can reduce the incidence of resistance (e.g., by inhibiting mutation).
These aliquoted samples were then assayed to determine whether they can grow in the presence of ciprofloxacin. […]

strain E1 = assay: Potentiation of gentamicin by mefloquine (MBC, MIC); assay type: cell-based
From the text: Several aminoglycoside (gentamicin) potentiator target genes identified in Example 34 are ATP synthases.

[1] = tested on: wild-type strain of S. aureus; assay: Hydroxyl radical formation (HPF dye, flow cytometry) in S. aureus; assay type: cell-based
Experimental: For work with S. aureus, a Staphylococcus aureus subspecies aureus Rosenback strain was used that was obtained from ATCC (29740).
(§1) Growth Conditions. In the experiments, the growth and survival of untreated exponential phase E. coli, or S. aureus, were compared to cultured treated with antibiotics at the above concentrations. E. coli cultures were treated with norfloxacin, kanamycin, ampicillin, rifamycin SV, chloramphenical, tetracycline, erythromycin, or spectinomycin, where appropriate, S. aureus cultures were treated with norfloxacin, vancomycin or chloramphenical, where appropriate.
(§2) Hydroxyl radical and DNA damage sensor experiments using the flow cytometer. To monitor the occurrence of DNA damage, the engineered DNA damage sensor was used, which responds to auto-cleavage of LexA by activating expression of gfpmut3b. All the drug treatments and the no-drug controls were collected with both the kanamycin- and ampicillin-resistant version of the plasmid, with the exception of the ampicillin treatment (kanamycin plasmid only) and the kanamycin treatment (ampicillin plasmid only). All data were collected using a Becton Dickinson FACSCalibur flow cytometer (Becton Dickinson, San Jose, Calif.) with a 488-nm argon laser and a 515- to 545-nm emission filter (FL1) at low flow rate. The following PMT voltage settings were used: E00 (FSC), 360 (SSC) and 700 (FL1). To detect hydroxyl radical formation, the fluorescent reporter dye, 3′-(p-hydroxyphenyl) fluorescein (HPF, Invitrogen, Carlsbad, Calif.) was used at a concentration of 5 μM (1:1000) dilution), which is oxidized by hydroxyl radicals with high specificity. The following PMT voltage settings were used: E00 (FSC), 360 (SSC) and 825 (FL 1). Calibrite beads (Becton Dickinson) were used for instrument calibration.

E. coli MG1655 = assay: Hydroxyl radical formation (HPF dye, flow cytometry) in E. coli; assay type: cell-based; settings: E. coli; 250 ng/mL norfloxacin, 5 μg/mL ampicillin, 5 μg/mL kanamycin; bacteriostatic drugs; 3 hours after addition
Experimental: as §1, §2
Flow data were processed and analyzed with MATLAB (MathWorks, Natick, Mass.) to construct figures. At least 50,000 cells were collected for each sample. In all experiments, cells were grown as described above. Samples were taken immediately before addition of drug (time zero), then every hour for 3 hours. At each timepoint, approximately […] were collected, washed once and resuspended in filtered 1×PBS, pH 7.2 (Fisher Scientific), and fluorescence was measured on the flow cytometer.
In the present study, the Applicants chose to investigate whether hydroxyl radical formation also contributes to antibiotic-induced cell death in bacteria. Using the dye hydroxyphenyl fluorescein, HPF, which is oxidized by hydroxyl radicals with high specificity, hydroxyl radical formation was first observed over a range of hydrogen peroxide concentrations known to induce hydroxyl radicals through the reduction of hydrogen peroxide by ferrous iron. In this manner, it was possible to establish the scale of hydroxyl radical formation detectable using this dye via flow cytometry.

E. coli H+ATPase = E. coli H+ATPase (Escherichia coli, UniProt P0AB98+P68699); settings: cited from earlier work

T1 sequence (P0A7G6 2-353): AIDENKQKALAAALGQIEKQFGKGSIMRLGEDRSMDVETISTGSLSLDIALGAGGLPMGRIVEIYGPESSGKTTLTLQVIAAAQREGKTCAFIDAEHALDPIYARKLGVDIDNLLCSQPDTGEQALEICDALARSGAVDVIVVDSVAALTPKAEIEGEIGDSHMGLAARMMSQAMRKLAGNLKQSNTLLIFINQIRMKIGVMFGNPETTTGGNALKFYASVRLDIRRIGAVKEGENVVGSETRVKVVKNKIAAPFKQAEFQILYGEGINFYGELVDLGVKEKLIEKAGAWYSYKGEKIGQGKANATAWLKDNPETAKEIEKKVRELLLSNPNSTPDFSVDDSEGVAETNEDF

## O=c1c(O)c(-c2ccc(O)cc2)oc2cc(O)ccc12 [3,7,4′-trihydroxyflavone]
E. Coli RecA protein
  activity as inhibitor of RecA ATPase (in words): particularly active

## O=c1cc(-c2ccc(O)cc2)oc2cc(O)c(O)c(O)c12 [6-hydroxy-apigenin]
E. Coli RecA protein
  activity as inhibitor of RecA ATPase (in words): particularly active

## O=C(O)c1cn(C2CC2)c2cc(N3CCNCC3)c(F)cc2c1=O [Cipro, ciprofloxacin]
Wild type E. coli
  growth of wild type E. coli in the presence of Cipro: able to grow
S. aureus cells; culture grown 0 days
  Number of Wells in which Growth Observed in Presence of Ciprofloxacin at 4x MIC: 0
S. aureus cells; culture grown 1 day
  Number of Wells in which Growth Observed in Presence of Ciprofloxacin at 4x MIC: 1
S. aureus cells; culture grown 5 days
  Number of Wells in which Growth Observed in Presence of Ciprofloxacin at 4x MIC: 2
S. aureus cells; culture grown 6 days
  Number of Wells in which Growth Observed in Presence of Ciprofloxacin at 4x MIC: 2
S. aureus cells; culture grown 7 days
  Number of Wells in which Growth Observed in Presence of Ciprofloxacin at 4x MIC: 3
S. aureus cells; culture grown 10 days
  Number of Wells in which Growth Observed in Presence of Ciprofloxacin at 4x MIC: 11

## OC(c1cc(C(F)(F)F)nc2c(C(F)(F)F)cccc12)C1CCCCN1 (centres unmarked) [Mefloquine]
Strain E1; strain E1, Mefloquine 100 μg/mL
  reduction of the MBC of gentamicin: 6 fold
Strain E1; strain E1, Mefloquine 500 μg/mL
  reduction of the MIC of gentamicin: 2 fold

## O=c1cc(-c2ccc(O)cc2)oc2cc(O[C@@H]3O[C@H](CO)[C@@H](O)[C@H](O)[C@H]3O)cc(O)c12 [apigenin-7-O-glucoside]
E. Coli RecA protein
  activity as inhibitor of RecA ATPase (in words): particularly active

## O=c1cc(-c2ccc(O)cc2)oc2cc(O)cc(O)c12 [apigenin]
E. Coli RecA protein
  activity as inhibitor of RecA ATPase (in words): particularly active

## O=C(N[C@H](CO)[C@H](O)c1ccc([N+](=O)[O-])cc1)C(Cl)Cl [chloramphenicol]
[1]; norfloxacin, chloramphenical
  hydroxyl radical formation: hydroxyl formation was not observed
E. coli MG1655
  hydroxyl radical formation: did not stimulate hydroxyl radical production

## CC[C@H]1OC(=O)[C@H](C)[C@@H](O[C@H]2C[C@@](C)(OC)[C@@H](O)[C@H](C)O2)[C@H](C)[C@@H](O[C@@H]2O[C@H](C)C[C@H](N(C)C)[C@H]2O)[C@](C)(O)C[C@@H](C)C(=O)[C@H](C)[C@@H](O)[C@]1(C)O [erythromycin]
E. coli MG1655
  hydroxyl radical formation: did not stimulate hydroxyl radical production

## O=c1c(O)c(-c2ccc(O)c(O)c2)oc2cc(O)ccc12 [fisetin]
E. Coli RecA protein
  activity as inhibitor of RecA ATPase (in words): particularly active

## COc1cc(-c2oc3cc(O)cc(O)c3c(=O)c2O)ccc1O [isorhamnetin]
E. Coli RecA protein
  activity as inhibitor of RecA ATPase (in words): particularly active

## O=c1c(O)c(-c2ccc(O)cc2)oc2cc(O)cc(O)c12 [kaempferol]
E. Coli RecA protein
  activity as inhibitor of RecA ATPase (in words): particularly active

## O=C(c1ccc(O)c(O)c1)c1c(O)cc(O)cc1O [maclurin]
E. Coli RecA protein
  activity as inhibitor of RecA ATPase (in words): particularly active

## O=c1c(O)c(-c2ccc(O)cc2O)oc2cc(O)cc(O)c12 [morin]
E. Coli RecA protein
  activity as inhibitor of RecA ATPase (in words): particularly active

## CC[C@H]1/C=C/C=C/C[C@@H](C)[C@H](O)[C@@](C)(O)C(=O)[C@@H](C)[C@H](O)[C@@H](C)C(=O)[C@@H](C)[C@H](O)[C@@H](C)/C=C/C(=O)O[C@@H]2[C@H](C)[C@H](CC1)O[C@]1(CC[C@H](C)[C@H](C[C@@H](C)O)O1)[C@H]2C [oligomycin]
E. coli H+ATPase
  inhibition of ATP-driven proton transport and ATP hydrolysis: weakly inhibited

## O=c1c(O)c(-c2ccc(O)c(O)c2)oc2cc(O)c(O)c(O)c12 [quercetagetin]
E. Coli RecA protein
  activity as inhibitor of RecA ATPase (in words): particularly active

## O.O.O=c1c(O)c(-c2ccc(O)c(O)c2)oc2cc(O)cc(O)c12 [quercetin dihydrate]
E. Coli RecA protein
  activity as inhibitor of RecA ATPase (in words): particularly active

## CO[C@H]1/C=C/O[C@@]2(C)Oc3c(C)c([O-])c4c(O)c(cc(O)c4c3C2=O)NC(=O)/C(C)=C\C=C\[C@H](C)[C@H](O)[C@@H](C)[C@@H](O)[C@@H](C)[C@H](OC(C)=O)[C@@H]1C.[Na+] [rifamycin SV]
E. coli MG1655
  hydroxyl radical formation: did not stimulate hydroxyl radical production

## O=c1c(O)cc([C@H]2Oc3cc(O)cc(O)c3C[C@H]2O)cc2c([C@H]3Oc4cc(O)cc(O)c4C[C@H]3O)cc(O)c(O)c12 [theaflavin]
E. Coli RecA protein
  activity as inhibitor of RecA ATPase (in words): particularly active

## CN[C@H](CC(C)C)C(=O)N[C@H]1C(=O)N[C@@H](CC(N)=O)C(=O)N[C@H]2C(=O)N[C@H]3C(=O)N[C@H](C(=O)N[C@H](C(=O)O)c4cc(O)cc(O)c4-c4cc3ccc4O)[C@H](O)c3ccc(c(Cl)c3)Oc3cc2cc(c3O[C@@H]2O[C@H](CO)[C@@H](O)[C@H](O)[C@H]2O[C@H]2C[C@](C)(N)[C@H](O)[C@H](C)O2)Oc2ccc(cc2Cl)[C@H]1O [vancomycin]
[1]; lethal concentration (5 μg/mL)
  hydroxyl radical formation: increase in hydroxyl radical production
[1]; sub-lethal concentration (1 μg/mL)
  hydroxyl radical formation: hydroxyl formation was not observed

## venturicidin
E. coli H+ATPase
  inhibition of ATP-driven proton transport and ATP hydrolysis: strongly inhibited
